Test results published in US20020128317A1, “Treatment of pathological conditions characterized by an increased IL-1 level” (Laboratories NEGMA, priority 2001, published 2002).

Experiments:
[1] = Stability in aqueous solution; assay type: physicochemical
Description: (§1) Preferably the diacerein or rhein is administered orally in the conventional solid unit dosage form.

cyclooxygenase pathway = assay: Inhibitory effect on cyclooxygenase pathway; assay type: biochemical
Description: (§2) This unique mechanism of action of diacerein was thought to explain, at least in part, its efficacy in the symptomatic treatment of osteoarthritis.

cartilage degradation = assay: Effect on cartilage degradation in osteoarthritis treatment; assay type: in vivo; conditions: prescribed treatment protocol
[2] = tested on: prostaglandin biosynthesis; assay: Inhibition of prostaglandin biosynthesis; assay type: biochemical
Description: as §2

TNF-α = assay: Effect of administration on TNF-α levels in subjects; assay type: in vivo; conditions: subjects with abnormally elevated IL-1 and TNF-α levels
[3] = Gastric safety during osteoarthritis treatment; assay type: in vivo
Description: as §2

Solubility = assay type: physicochemical
Description: as §1

IL-1 [4] = assay: IL-1 inhibition, several studies in vitro and with animal models of osteoarthritis
Description: as §2

lipooxygenase pathway = assay: Inhibitory effect on lipooxygenase pathway; assay type: biochemical
Description: as §2

phospholipase pathway = assay: Inhibitory effect on phospholipase pathway; assay type: biochemical
Description: as §2

IL-1 [5] = assay: Effect of administration on IL-1 levels in subjects; assay type: in vivo; conditions: subjects with abnormally elevated IL-1 and TNF-α levels

Substance: diacerein
- stability in water [1]: may not be sufficiently stable
- inhibitory effect on the cyclooxygenase pathway (cyclooxygenase pathway): no inhibitory effect was detected
- effect on cartilage degradation (cartilage degradation): significant effect on cartilage degradation
- inhibition of prostaglandin biosynthesis [2]: neither diacerein nor rhein inhibit
- effect on TNF-α levels (TNF-α): inhibitory effect
- gastric safety profile [3]: excellent gastric safety profile
- solubility in alcohol (Solubility; alcohol): virtually insoluble
- solubility in water (Solubility; water): virtually insoluble
- IL-1 inhibition (IL-1 [4]): is an IL-1 inhibitor
- inhibitory effect on the lipooxygenase pathway (lipooxygenase pathway): no inhibitory effect was detected
- inhibitory effect on the phospholipase pathway (phospholipase pathway): no inhibitory effect was detected
- effect on IL-1 levels (IL-1 [5]): inhibitory effect
